The values below are quoted from earlier work in patent US11633409B2, “Solid preparation comprising dutasteride and method for preparing same” (JW PHARMACEUTICAL CORPORATION, priority 2017, dated 2023).

Assay in data set [1]: not given
This is another data set of the same source.

Like-named read-outs stand apart in the source and are kept apart here.

On to `C[C@]12C=CC(=O)NC1CCC1C2CC[C@@]2(C)C1CC[C@@H]2C(=O)Nc1cc(C(F)(F)F)ccc1C(F)(F)F` (stereo partly shown) [dutasteride, Dutasteride], for which the equilibrium solubility is given as 2.75 g/100 g (in Capmul MCM NF); 0.39 g/100 g (in PEG 400); 2.41 g/100 g (in Transcutol); 4.40 g/100 g (in ethanol); 3.06 g/100 g (in isopropanol); 1.34 g/100 g (in propylene glycol). Further, the solubility in water result in data set [1] is reported as “insoluble in water”.
